Data set [1] is described as follows: Pharmacokinetic evaluation in SD rats at different oral doses. The class given is in vivo, Sprague Dawley rats. Particulars: for AUC(0-t): read-out: Area under the drug-time curve AUC0-last PO; for Cmax: read-out: Peak concentration Cmax; for Tmax: read-out: Peak time Tmax; for half-life: read-out: Half-life T1/2 (PO) (converted). Here is the method:
Test Embodiment 5: Pharmacokinetic Evaluation of Compounds in Rats at Different Doses
Experimental objective: to test the pharmacokinetics of the compounds in SD rats at different doses
Sprague Dawley rats (male, 200-300 g, 7-9 weeks old, Shanghai SLAC)
A standard protocol was used to test the pharmacokinetic characteristics of the compounds in SD rats after oral administration. In the experiment, the candidate compound was prepared into a clear solution, and administrated to rats by single oral administration. The vehicle for compound 1 was DMSO: 10% hydroxypropyl β-cyclodextrin aqueous solution=5:95. The vehicle for compounds 1A and 1B was 0.5% carboxymethyl cellulose +0.2% Tween 80. Whole blood samples of compounds 1, 1A and 1B within 48 hours were collected, centrifuged at 3000 g for 15 minutes, and the supernatant was separated to obtain plasma samples. 4-fold volume of acetonitrile solution containing internal standard was added thereto to precipitate protein. The mixture was centrifuged, and the supernatant was taken, and an equal volume of water was added thereto. Then the mixture was centrifuged and the supernatant was taken for injection. The blood drug concentration was quantitatively analyzed by LC-MS/MS analysis method, and pharmacokinetic parameters, such as peak concentration, peak time, half-life, area under the drug-time curve, were calculated.

Data set [2] is described as follows: Pharmacokinetic evaluation in SD rats (intravenous and oral). The class given is in vivo. The settings on record: male, Sprague-Dawley, plasma, SD rat. Here is the method: Test Embodiment 3: Pharmacokinetic Evaluation of Compound in Rats
Experimental objective: to test the pharmacokinetics of the compound in SD rats
Sprague Dawley rat (male, 200-300 g, 7-9 weeks old, Shanghai SLAC)
(§1) A standard protocol was used to test the pharmacokinetic characteristics of rodents after intravenous injection and oral administration of the compound. In the experiment, the candidate compound was prepared into a clear solution, and administrated to rats by single intravenous injection and oral administration. The vehicle for intravenous injection was a 5:95 DMSO and 10% hydroxypropyl cyclodextrin aqueous solution, and the vehicle for oral administration was a 0.5% w/v methylcellulose and 0.2% w/v tween 80 aqueous solution. Whole blood samples within 24 hours were collected, centrifuged at 3000 g for 15 minutes, and the supernatant was separated to obtain plasma samples. 4-fold volume of acetonitrile solution containing internal standard was added thereto to precipitate protein. The mixture was centrifuged, and the supernatant was taken, and an equal volume of water was added thereto. Then the mixture was centrifuged and the supernatant was taken for injection. The blood drug concentration was quantitatively analyzed by LC-MS/MS analysis method, and pharmacokinetic parameters, such as peak concentration, clearance rate, half-life, area under the drug-time curve and bioavailability, were calculated.

Data set [3] deals with T1, S1PR1 (Homo sapiens, UniProt P21453).
T1 construct: expressed in transfected cells
Nature of the data set: In vitro S1PR1 agonistic activity, PathHunter cell line, chemiluminescent detection. It counts as cell-based. On the procedure:
Test Embodiment 1: In Vitro Evaluation of the Agonistic Activity of the Compounds of the Present Disclosure on S1PR1
(§2) Experimental objective: to detect the agonistic activity of compounds on S1PR1
I. Cell Treatment • 1. A PathHunter cell line was thawed according to standard procedures; • 2. the cells were inoculated in a 20 μL 384-well microplate and incubated at 37° C. for appropriate time.
II. Agonist • 1. For agonist determination, cells were incubated with samples to be tested to induce a reaction; • 2. a storage solution to be tested was 5-fold diluted into a buffer; • 3. 5 μL of the 5-fold dilution was added to the cells and incubated at 37° C. for 90-180 minutes. The vehicle concentration was 1%.
III. Signal Detection • 1. 12.5 μL or 15 μL of PathHunter detection reagent at a volume ratio of 50% was added at a time, and then incubated at room temperature for 1 hour to generate a detection signal; • 2. the microplate was read with a PerkinElmer Envision™ instrument for chemiluminescent signal detection.
IV. Data Analysis • 1. Activity analysis of the compound was carried out by using CBIS data analysis kit (ChemInnovation, CAA); • 2. calculation formula: % activity=100%×(average test sample RLU−average vehicle RLU)/(average maximum control ligand−average vehicle RLU)

Data set [4] in a line: Pharmacokinetic evaluation in CD-1 mice (intravenous and oral). The class given is in vivo. The settings on record: male, mouse, plasma. Here is the method: Test Embodiment 4: Pharmacokinetic Evaluation of Compound in Mice
Experimental objective: to test the pharmacokinetics of the compound in CD-1 mice
CD-1 mice (male, 20-40 g, 6-10 weeks old, Shanghai BK)
as §1, with “The standard” for “A standard”, “clear solution or a suspension,” for “clear solution,”, “to two mice” for “to rats”, “hydroxypropyl β-cyclodextrin” for “hydroxypropyl cyclodextrin”, “at 3200” for “at 3000”, “for 10” for “for 15”

Data set [5] has as its target T1, S1PR1. Nature of the data set: In vitro S1PR1 agonistic activity, U2OS-EDG1 cells, LiveBLAzer-FRET B/G (CCF4-AM). The class given is cell-based. Particulars: for EC50: 20 hours incubation; for Emax: % Effect. Here is the method: Test Embodiment 2: In Vitro Evaluation of the Agonistic Activity of the Compounds of the Present Disclosure on S1PR1
as §2
I. Cell Treatment • 1. The cells U2OS-EDG1 (batch number: Invitrogen-K1520) were taken out from a liquid nitrogen tank and quickly thawed in a 37° C. water bath; • 2. the cell suspension was aspirated into a 15 mL centrifuge tube, resuspended in 5 mL of pre-warmed culture medium, and centrifuged at 1000 rpm for 5 min; • 3. the supernatant was discarded, 10 mL of culture medium was resuspended, transferred to a T75 culture flask, and cultured in a 37° C., 5% CO2 incubator.
II. Agonist Assay • 1. Compounds were diluted to working concentrations, and the compounds were 3-fold diluted by Echo 555 (manufacturer: Labcyte) to 10 concentrations, and then 200 nL of each concentration were transferred to cell plates, and centrifuged at 1000 rpm for 15 seconds; • 2. the culture medium in the culture flask was aspirated, and 4 mL of Dulbecco's Phosphate Buffered Saline (DPBS, supplier: Coring, catalog number: 21-031-CVR, batch number: 03318006) was added thereto to wash off the residual serum, and 2 mL of trypsin was added thereto, and incubated in a 37° C. incubator for 2 minutes to digest the cells, and then 10 mL of seed plate culture medium was added to resuspend the cells, and 0.6 mL of the cell suspension was taken out for counting; • 3. the cell density was adjusted with the seed plate culture medium to 1.88E+05 cells/mL, 40 μL was seeded per well (7500\well), and 40 μL of FreeStyle™ Expression culture medium was added around the cell plate, left to stand for 15 minutes at room temperature, and incubated at 37° C. with 5% CO2 for 20 hours.
III. Signal Detection • 1. LiveBLAzer™-FRET B/G Substrate (CCF4-AM) detection reagent was configured according to the instructions; • 2. 8 μL of 6×Substrate Mixture was added to each well of the cell plate, centrifuged at 1000 rpm for 15 seconds, attached with a membrane, incubated at 23° C. for 2 hours, and detected by Envision […].
IV. Data Analysis • 1. The original data was converted into % Effect by using the equation, and the value of EC50 could be obtained by curve fitting with four parameters [obtained in the “log(agonist) vs. response—Variable slope” mode in GraphPad Prism]; • 2. calculation formula: Ratio=(460 nm−blank)/(535 nm−blank) % Effect=(SampleRatio−Ave LCRatio)/(Ave HCRatio−Ave LCRatio)*100%

The mark [6] stands for this setting: male, Sprague-Dawley, rat, plasma, po, 5 mg/kg, single oral administration 5 mg/kg.
The mark [7] stands for this setting: male, Sprague-Dawley, rat, plasma, po, 30 mg/kg, single oral administration 30 mg/kg.
[8] abbreviates: SD rat, single oral administration 5 mg/kg, 5 mg/kg.

The record followed here is patent US11760751B2, “Benzo 2-azaspiro[4.4]nonane compound and use thereof” (HELIOEAST PHARMACEUTICAL CO., LTD., priority 2020, dated 2023).

Where a name gives a salt, the structure may show the parent alone. Read-outs that look alike come from different tables or passages of the source.

T1 sequence (P21453 whole entry): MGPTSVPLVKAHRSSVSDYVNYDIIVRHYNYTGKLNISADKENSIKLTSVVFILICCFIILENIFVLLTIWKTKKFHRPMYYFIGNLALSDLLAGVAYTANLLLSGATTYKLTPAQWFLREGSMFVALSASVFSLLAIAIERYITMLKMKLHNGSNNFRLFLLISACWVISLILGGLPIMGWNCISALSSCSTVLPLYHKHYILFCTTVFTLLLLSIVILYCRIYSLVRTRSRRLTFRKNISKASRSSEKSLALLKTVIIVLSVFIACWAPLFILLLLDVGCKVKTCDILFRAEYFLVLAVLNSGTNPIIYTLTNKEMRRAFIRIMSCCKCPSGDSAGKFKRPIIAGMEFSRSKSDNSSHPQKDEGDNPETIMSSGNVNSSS

A word on the Tmax: it is the time at which the peak concentration occurs. What is called bioavailability is the share of a dose that reaches the circulation, judged against a reference dose that is usually intravenous. A word on the EC50: it is the midpoint of the concentration-response curve. Lower therefore signals an effect from little substance. In general, Emax refers to the size of the effect at its maximum, as opposed to the concentration needed. `CC(C)Oc1ccc(-c2nc(-c3cccc4c3CCC43CCN(CC4(C(=O)O)CC4)C3)no2)cc1C#N` (stereo not drawn) [Hydrochloride of compound 22]: the AUC(0-t) is 32.3 µM·h in data set [1] (setting [6]); 256 µM·h in data set [1] (setting [7]); 16.3 µM·h in data set [2] (oral administration 2.4 mg/kg, read-out: Area under the drug-time curve AUC0-last PO); 7.88 µM·h in data set [4] (oral administration 2.0 mg/kg, read-out: Area under the drug-time curve AUC0-last PO). Moreover, the Cmax in data set [1] (setting [6]) is 2400 nM; in data set [1] (setting [7]) it was 15300 nM; in data set [2] (intravenous 0.8 mg/kg, oral 2.4 mg/kg (route of Cmax not stated), read-out: Peak concentration Cmax) it was 1770 ng/mL; in data set [4] (intravenous 0.5 mg/kg, oral 2.0 mg/kg (route of Cmax not stated), read-out: Peak concentration Cmax), 869 ng/mL. Besides, the Tmax in data set [1] (setting [6]) was found to be 5 h; in data set [1] (setting [7]), 2 h. Also, the half-life in data set [1] (setting [7]) is 8.24 h; in data set [2] (oral administration 2.4 mg/kg, read-out: Half-life T1/2 (PO) (converted)) it was 4.67 h; in data set [4] (oral administration 2.0 mg/kg, read-out: Half-life T1/2 (PO) (converted)), 3.66 h. In addition, the bioavailability in data set [2] (intravenous 0.8 mg/kg, oral 2.4 mg/kg, read-out: Bioavailability F) is 69.5%; in data set [4] (intravenous 0.5 mg/kg, oral 2.0 mg/kg, read-out: Bioavailability F), 62.5%. Further, the clearance was determined as 3.44 mL/min/kg in data set [2] (intravenous injection 0.8 mg/kg (oral 2.4 mg/kg), read-out: Clearance rate CL) and 5.2 mL/min/kg in data set [4] (intravenous injection 0.5 mg/kg (oral 2.0 mg/kg), read-out: Clearance rate CL). In addition, the Vd amounted to 1.6 L/kg in data set [2] (intravenous injection 0.8 mg/kg (oral 2.4 mg/kg), read-out: Tissue distribution Vdss) and 1.82 L/kg in data set [4] (intravenous injection 0.5 mg/kg (oral 2.0 mg/kg), read-out: Tissue distribution Vdss). Besides, the EC50 at S1PR1 [3] (90-180 min at 37° C.) worked out at 0.0754 nM. The compound also had an Emax on S1PR1 [3] (% activity vs maximum control ligand) of 118%.

Regarding `CC(C)Oc1ccc(-c2nc(-c3cccc4c3CCC43CCN(CC4(C(=O)O)CC4)C3)no2)cc1C#N` (single isomer, unassigned) [Compound 22B], in data set [1] (setting [6]), the AUC(0-t) turned out to be 33 µM·h, the half-life was 6.7 h, the Cmax was found to be 2940 nM and the Tmax was found to be 3 h. Besides, at S1PR1 [5], the EC50 was found to be 0.32 nM and the Emax entry is listed as “nM, 74.0%”.

As for `CC(C)Oc1ccc(-c2nc(-c3cccc4c3CCC43CCN(CC4(C(=O)O)CC4)C3)no2)cc1C#N` (single isomer, unassigned) [Compound 22A], in data set [1] (setting [8]), the “Area under the drug-time curve AUC0-last PO” value was found to be 26.434 µM·h, the “Half-life T1/2 (PO)” value amounted to 5.69 h, the “Peak time Tmax” value stood at 2 h and the Cmax was 2500 nM. The compound further registered an EC50 on S1PR1 [5] of 0.15 nM. For the same compound, the Emax on S1PR1 [5] (read-out: Emax) came to 84.2%.
